From patent US11844801B2, “Oral compositions of MK2 pathway inhibitor for treatment of immune conditions” (priority 2020, dated 2023)
≈ marks a conversion by molar mass, not a printed value.

How the values were obtained:
[1] = Phase 2a RA study: safety (adverse events)
Protocol: Patient eligibility was assessed based on the following criteria: (i) a diagnosis of adult onset RA (ACR/EULAR classification criteria); (ii) DAS28-CRP≥3.2 defined as moderate to high disease activity; (iii) moderately to severely active RA defined by at least 4/28 tender and 4/28 swollen joints; (iv) hsCRP≥5 mg/L at screening; (v) definitive intra-articular synovitis or osteitis defined as a score of 1 or greater on a Hand-Wrist MM (using RAMRIS); (vi) stable MTX dose (defined as 7.5 mg to 25 mg weekly) for at least 4 weeks prior to the screening visit. […] Study medications were administered orally for 12 weeks. Patients were required to remain on a stable dose of MTX (7.5 mg to 25 mg/week) and a stable dose of folic or folinic acid (≥5 mg/week) for the duration of the study.
Patients attended clinic visits on Days 7, 14, 28, 42, 56, and 84 (±1 day) for safety, efficacy, PK, and PD assessments. The morning dose of study medication was administered in the clinic on each study visit day.
At the completion of 4 weeks of treatment (Day 28), each patient's safety data (e.g., AEs, laboratory values, vital signs, and ECGs) will be reviewed to ensure that the patient is tolerating the treatment regimen and is deemed suitable to continue treatment for the next 8 weeks.

[2] = tested on: TNF-α, IL-1β, IL-6 and IL-8; assay: R848 (TLR7/TLR8) stimulated cytokines and chemokines in human whole blood; assay type: cell-based; details: 5 h, R848 0.5 μg/mL, five hours
Protocol: Human whole blood assays were performed as described above with the exceptions listed below. […] Compounds were serially diluted in 100% DMSO (Sigma-Aldrich, D2650) followed by a 10× dilution into RPMI (Gibco, 11875). After the one-hour incubation with the compounds or vehicle, 2 μL of R848 (InvivoGen, tlrl-r848) in RPMI (Gibco, 11875) was added for a final concentration of 0.5 μg/mL to each well except for the no stimulus wells. After five hours of incubation with R848, plasma was harvested and assayed for TNF-α, IL-1β, IL-6 and IL-8 using Meso Scale Discovery Technology V-plex human cytokine kits according to the kit protocol.

[3] = clinical; details: male, human, in vivo
[4] = tested on: IL-6; assay: Poly(I:C) stimulated IL-6 production in human whole blood; assay type: cell-based; details: 100 ug/mL, 24 hr
Protocol: Human whole blood assays were performed as described above with the exceptions listed below. […] Compounds were serially diluted in 100% DMSO (Sigma-Aldrich, D2650) followed by a 25× dilution into DMEM/10% FBS (Gibco, 11965/26140). After the one-hour incubation with the compounds or vehicle, 20 μL of poly(I:C) (InvivoGen, HMW, tlrl-pic), in DPBS (Gibco, 14190-136) was added for a final concentration of 100 μg/mL to each well except for the no stimulus wells. After twenty-four hours of incubation with poly(I:C), plasma was harvested and assayed for IP10, IFNγ, IL-6, IL-8 and TNF-α using Meso Scale Discovery Technology V-plex human cytokine kits according to the kit protocol.

[5] = tested on: IL-6; assay: A549 IL-1β stimulated IL-6 assay; assay type: cell-based; details: Homo sapiens, A549 cells, 1 ng/mL, 18 hr
Protocol: A549 IL-1β stimulated IL-6 Assay—A549 cells (American Type Culture Collection, […]) were grown in Ham's F-12K (Kaighn's) (Gibco, 21127-022) with penicillin-streptomycin (10 U/mL) (Gibco, 15140-122) and 10% fetal bovine serum (Gibco, 26140-079). Cells were grown to 80% confluence then trypsinized to remove cells. Cells were plated in 96 well flat bottom plates in complete media and allowed to recover overnight. Cells were pretreated for one hour in the presence of serially diluted compound or vehicle (0.5% DMSO) (Sigma-Aldrich, D2650) then stimulated with IL-1β (1 ng/mL) (R&D Systems, 201-LB-005) for 18 hours. Culture media was then collected for determination of IL-6 levels using Meso Scale Technology.

[6] = tested on: IL-1α; assay: Human PBMC LPS stimulated IL-1α biosynthesis; assay type: cell-based; details: hPBMC, 100 ng/mL, 24 hr
[7] = tested on: TNF-α; assay: IL-1β stimulated TNF-α production in human whole blood; assay type: cell-based
Protocol: Compounds were serially diluted in 100% DMSO (Sigma-Aldrich, D2650) followed by a 10× dilution into RPMI (Gibco, 11875). After the one-hour incubation with the compounds or vehicle, 2 μL of IL-1β (R&D, 201-LB-010) in RPMI (Gibco, 11875) was added for a final concentration of 0.5 μg/mL to each well except for the no stimulus wells. […]

With `Cc1cnc(-c2ccnc(C(C)(C)O)n2)cc1-n1c(C)cc(OCc2ncc(F)cc2F)c(Cl)c1=O` (single isomer, unassigned) [ATI-450, 3-chloro-4-((3,5-difluoropyridin-2-yl)methoxy)-2′-(2-(2-hydroxypropan-2-yl)pyrimidin-4-yl)-5′,6-dimethyl-2H-[1,4′-bipyridin]-2-one] the tolerability ([1]; 50 mg BID plus MTX, 12 weeks) was “very well tolerated, with no serious or severe adverse events reported”, the “Abnormal ECG, Mild, n (%)” value ([1]; 50 mg BID, RA patients, n = 16) was 1 (6.25) and the “Abnormal ECG, Moderate, n (%)” value ([1]; 50 mg BID, RA patients, n = 16) was 0. For the same compound, the “Blood cholesterol increased, Mild, n (%)” value ([1]; 50 mg BID, RA patients, n = 16) was 1 (6.25), the “Blood cholesterol increased, Moderate, n (%)” value ([1]; 50 mg BID, RA patients, n = 16) was 0 and the “Blood creatine phosphokinase increased, Mild, n (%)” value ([1]; 50 mg BID, RA patients, n = 16) was 0. For the same compound, the “Blood creatine phosphokinase increased, Moderate, n (%)” value ([1]; 50 mg BID, RA patients, n = 16) was 1 (6.25), the “Constipation, Mild, n (%)” value ([1]; 50 mg BID, RA patients, n = 16) was 1 (6.25) and the “Constipation, Moderate, n (%)” value ([1]; 50 mg BID, RA patients, n = 16) was 0. For the same compound, the “Ear infection, Mild, n (%)” value ([1]; 50 mg BID, RA patients, n = 16) was 1 (6.25), the “Ear infection, Moderate, n (%)” value ([1]; 50 mg BID, RA patients, n = 16) was 0 and the “Essential hypertension, Mild, n (%)” value ([1]; 50 mg BID, RA patients, n = 16) was 0. The “Essential hypertension, Moderate, n (%)” value ([1]; 50 mg BID, RA patients, n = 16) was 1 (6.25), the “Hyperliidaemia, Mild, n (%)” value ([1]; 50 mg BID, RA patients, n = 16) was 0 and the “Hyperliidaemia, Moderate, n (%)” value ([1]; 50 mg BID, RA patients, n = 16) was 1 (6.25). For the same compound, the “Hypokalaemia, Mild, n (%)” value ([1]; 50 mg BID, RA patients, n = 16) was 0, the “Hypokalaemia, Moderate, n (%)” value ([1]; 50 mg BID, RA patients, n = 16) was 1 (6.25) and the “Ligament sprain, Mild, n (%)” value ([1]; 50 mg BID, RA patients, n = 16) was 1 (6.25). For the same compound, the “Ligament sprain, Moderate, n (%)” value ([1]; 50 mg BID, RA patients, n = 16) was 0, the “Low density lipoprotein increased, Mild, n (%)” value ([1]; 50 mg BID, RA patients, n = 16) was 1 (6.25) and the “Low density lipoprotein increased, Moderate, n (%)” value ([1]; 50 mg BID, RA patients, n = 16) was 0. For the same compound, the “Mouth ulceration, Mild, n (%)” value ([1]; 50 mg BID, RA patients, n = 16) was 1 (6.25), the “Mouth ulceration, Moderate, n (%)” value ([1]; 50 mg BID, RA patients, n = 16) was 0 and the “Palpitations, Mild, n (%)” value ([1]; 50 mg BID, RA patients, n = 16) was 1 (6.25). The “Palpitations, Moderate, n (%)” value ([1]; 50 mg BID, RA patients, n = 16) was 0, the “Rash erythematous, Mild, n (%)” value ([1]; 50 mg BID, RA patients, n = 16) was 1 (6.25) and the “Rash erythematous, Moderate, n (%)” value ([1]; 50 mg BID, RA patients, n = 16) was 0. The “Sinusitis, Mild, n (%)” value ([1]; 50 mg BID, RA patients, n = 16) was 0, the “Sinusitis, Moderate, n (%)” value ([1]; 50 mg BID, RA patients, n = 16) was 1 (6.25) and the “Skin abrasion, Mild, n (%)” value ([1]; 50 mg BID, RA patients, n = 16) was 1 (6.25). The “Skin abrasion, Moderate, n (%)” value ([1]; 50 mg BID, RA patients, n = 16) was 0, the “Urinary tract infection, Mild, n (%)” value ([1]; 50 mg BID, RA patients, n = 16) was 0 and the “Urinary tract infection, Moderate, n (%)” value ([1]; 50 mg BID, RA patients, n = 16) was 2 (12.5). For the same compound, the “Ventricular extrasystoles, Mild, n (%)” value ([1]; 50 mg BID, RA patients, n = 16) was 1 (6.25), the “Ventricular extrasystoles, Moderate, n (%)” value ([1]; 50 mg BID, RA patients, n = 16) was 0 and the “White blood cell count increased, Mild, n (%)” value ([1]; 50 mg BID, RA patients, n = 16) was 1 (6.25). The “White blood cell count increased, Moderate, n (%)” value ([1]; 50 mg BID, RA patients, n = 16) was 0, the IC50 [2] was roughly 100 nM and the Tmax [3] was 2 h. It also gave an IC50 [4] of 13.2 ± 12.8 nM, an IC50 [5] of 11.1 ± 7.6 nM and an IC50 [6] of 31.1 nM. The IC50 ([7]; Human Whole Blood, IL-1β, 10 ng/mL, 5 hr) was 12.2 ± 4 nM and the IC80 ([7]; human whole blood) was 0.031 ± 0.006 µg/mL (≈ 0.0603 µM).
